Measurements as given in ChEMBL document CHEMBL2177007, “Indole-derived psammaplin A analogues as epigenetic modulators with multiple inhibitory activities” (J Med Chem, 2012).
Active and inactive are the calls of the source. The calls are words filed in the database; no cut-off is given here.

Columns and labels:
[1] = molecular target: T1, Protein deacetylase HDAC6 (Homo sapiens) (UniProt Q9UBN7); experiment: Inhibition of HDAC6 in human U937 cells assessed as induction of alpha-tubulin acetylation at 5 uM after 30 hrs by cytofluorimetric analysis; type: cell-based; settings: U-937
T1 sequence (whole entry): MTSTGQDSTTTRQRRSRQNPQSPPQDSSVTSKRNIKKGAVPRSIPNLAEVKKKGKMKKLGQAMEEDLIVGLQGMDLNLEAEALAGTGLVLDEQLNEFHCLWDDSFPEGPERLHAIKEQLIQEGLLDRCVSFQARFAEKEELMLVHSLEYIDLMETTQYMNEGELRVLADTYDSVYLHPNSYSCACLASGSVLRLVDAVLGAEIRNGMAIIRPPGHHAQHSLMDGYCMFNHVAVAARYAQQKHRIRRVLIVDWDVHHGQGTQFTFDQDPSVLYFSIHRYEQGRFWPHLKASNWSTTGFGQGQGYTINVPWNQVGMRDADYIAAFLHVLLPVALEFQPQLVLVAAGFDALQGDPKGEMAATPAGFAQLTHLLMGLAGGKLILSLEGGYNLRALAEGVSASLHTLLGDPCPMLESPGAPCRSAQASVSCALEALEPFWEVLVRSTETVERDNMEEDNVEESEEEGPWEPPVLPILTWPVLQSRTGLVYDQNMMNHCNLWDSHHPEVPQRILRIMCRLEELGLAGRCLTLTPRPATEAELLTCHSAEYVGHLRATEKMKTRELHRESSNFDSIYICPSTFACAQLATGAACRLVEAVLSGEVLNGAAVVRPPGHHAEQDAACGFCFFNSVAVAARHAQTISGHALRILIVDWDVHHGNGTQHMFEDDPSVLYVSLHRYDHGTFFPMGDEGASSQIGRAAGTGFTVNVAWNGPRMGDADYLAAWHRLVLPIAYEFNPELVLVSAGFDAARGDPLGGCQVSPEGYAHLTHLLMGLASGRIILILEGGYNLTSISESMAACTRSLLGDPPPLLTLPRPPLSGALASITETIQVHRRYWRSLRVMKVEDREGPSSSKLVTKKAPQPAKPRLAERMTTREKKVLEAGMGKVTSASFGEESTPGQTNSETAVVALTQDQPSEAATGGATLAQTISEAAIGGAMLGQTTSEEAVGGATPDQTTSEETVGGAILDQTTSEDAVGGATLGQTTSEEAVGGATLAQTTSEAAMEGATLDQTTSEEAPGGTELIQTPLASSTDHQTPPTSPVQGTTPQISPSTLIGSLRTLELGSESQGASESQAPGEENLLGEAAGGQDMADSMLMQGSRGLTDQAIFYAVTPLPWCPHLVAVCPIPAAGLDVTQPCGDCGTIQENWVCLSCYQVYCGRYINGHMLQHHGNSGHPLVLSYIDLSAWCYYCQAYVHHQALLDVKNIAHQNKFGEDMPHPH

[2] = molecular target: Histone deacetylase (Homo sapiens) (UniProt Q13547+O15379+Q9UBN7+Q92769+Q9UQL6+Q8WUI4+Q9BY41+Q96DB2+P56524+Q9UKV0+Q969S8); experiment: Inhibition of HDAC in human U937 cells assessed as induction of histone H3 acetylation at 5 uM after 30 hrs by cytofluorimetric analysis; type: cell-based; settings: U-937
U-937 [3] = experiment: Induction of apoptosis in human U937 cells at 5 uM after 30 hrs; type: functional, cell-based
[4] = molecular target: Histone deacetylase 1 (Homo sapiens) (UniProt Q13547); experiment: Inhibition of HDAC1 in human U937 cells at 5 uM […]; type: cell-based; settings: U-937
[5] = molecular target: Protein kinase C alpha type (Homo sapiens) (UniProt P17252); experiment: Inhibition of PKCalpha in human U937 cells assessed as p21WAF1/CIP1 expression at 5 uM after 30 hrs by cytofluorimetric analysis; type: cell-based; settings: U-937
[6] = molecular target: Histone deacetylase 4 (Homo sapiens) (UniProt P56524); experiment: Inhibition of HDAC4 in human U937 cells at 5 uM […]; type: cell-based; settings: U-937
[7] = molecular target: DNA (cytosine-5)-methyltransferase 1 (Homo sapiens) (UniProt P26358); experiment: Inhibition of recombinant DNMT1 using S-adenosyl-L-[methyl-3H]methionine as substrate at 5 uM after 2 hrs by radioactive assay
[8] = molecular target: T2, NAD-dependent protein deacetylase sirtuin-1 (Homo sapiens) (UniProt Q96EB6); experiment: Inhibition of SIRT1 in human U937 cells assessed as H3 acetylation on lysine K56 at 5 uM after 24 hrs by Western blot analysis; type: cell-based; settings: U-937
T2 sequence (whole entry): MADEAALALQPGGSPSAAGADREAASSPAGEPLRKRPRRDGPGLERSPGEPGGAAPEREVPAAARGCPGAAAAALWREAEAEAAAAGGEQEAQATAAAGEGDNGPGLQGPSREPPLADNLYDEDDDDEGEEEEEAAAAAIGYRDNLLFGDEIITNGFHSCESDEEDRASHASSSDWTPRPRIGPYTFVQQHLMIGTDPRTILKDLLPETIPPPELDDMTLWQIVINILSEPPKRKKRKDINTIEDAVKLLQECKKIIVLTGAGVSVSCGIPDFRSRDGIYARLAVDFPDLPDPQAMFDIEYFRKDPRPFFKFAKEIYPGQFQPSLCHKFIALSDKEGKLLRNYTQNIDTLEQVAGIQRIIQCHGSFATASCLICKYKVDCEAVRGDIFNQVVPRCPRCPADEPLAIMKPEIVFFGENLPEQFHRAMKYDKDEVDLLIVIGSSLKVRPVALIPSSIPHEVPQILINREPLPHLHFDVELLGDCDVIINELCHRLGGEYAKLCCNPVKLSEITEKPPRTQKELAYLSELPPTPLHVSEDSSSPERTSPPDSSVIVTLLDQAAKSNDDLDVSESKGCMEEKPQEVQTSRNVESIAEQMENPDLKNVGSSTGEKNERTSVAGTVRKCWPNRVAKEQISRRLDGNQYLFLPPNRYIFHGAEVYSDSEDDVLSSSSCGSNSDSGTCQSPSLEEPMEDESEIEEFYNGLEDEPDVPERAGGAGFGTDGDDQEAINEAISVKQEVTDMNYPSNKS

U-937 [9] = experiment: Effect on DNMT1 level in human U937 cells at 0.5 to 5 uM after 24 hrs by Western blot analysis; type: functional, cell-based
[10] = molecular target: T2, NAD-dependent protein deacetylase sirtuin-1 (Homo sapiens); experiment: Inhibition of human recombinant SIRT1 using KI-177 as substrate at 5 uM after 30 mins by fluorescence assay
[11] = molecular target: T2, NAD-dependent protein deacetylase sirtuin-1 (Homo sapiens); experiment: Inhibition of SIRT1 in human U937 cells assessed as H3 acetylation on lysine K9 at 5 uM after 24 hrs by Western blot analysis; type: cell-based; settings: U-937
[12] = molecular target: DNA (cytosine-5)-methyltransferase 1 (Homo sapiens) (UniProt P26358); experiment: Inhibition of DNMT1 human u937 cells assessed as reactivation of p16 expression at 0.5 to 5 uM after 24 hrs by Western blot analysis
[13] = molecular target: T2, NAD-dependent protein deacetylase sirtuin-1 (Homo sapiens); experiment: Inhibition of SIRT1 in human MCF7 cells assessed as p53 acetylation on lysine 382 at 5 uM after 24 hrs by Western blot analysis; type: cell-based
U-937 [14] = experiment: Induction of cell differentiation in human U937 cells assessed as CD11c expression at 5 uM after 30 hrs by cytofluorimetric analysis; type: functional, cell-based
[15] = molecular target: DNA (cytosine-5)-methyltransferase 1 (Homo sapiens) (UniProt P26358); experiment: Inhibition of DNMT1 human U937 cells assessed as reactivation of p16 expression at 5 uM after 24 hrs by Western blot analysis; type: cell-based; settings: U-937
[16] = molecular target: T2, NAD-dependent protein deacetylase sirtuin-1 (Homo sapiens); experiment: Inhibition of SIRT1 in human MCF7 cells assessed as p53 acetylation on lysine 382 after 24 hrs by Western blot analysis; type: cell-based

Histone deacetylase 4 (Homo sapiens), sequence (P56524 whole entry): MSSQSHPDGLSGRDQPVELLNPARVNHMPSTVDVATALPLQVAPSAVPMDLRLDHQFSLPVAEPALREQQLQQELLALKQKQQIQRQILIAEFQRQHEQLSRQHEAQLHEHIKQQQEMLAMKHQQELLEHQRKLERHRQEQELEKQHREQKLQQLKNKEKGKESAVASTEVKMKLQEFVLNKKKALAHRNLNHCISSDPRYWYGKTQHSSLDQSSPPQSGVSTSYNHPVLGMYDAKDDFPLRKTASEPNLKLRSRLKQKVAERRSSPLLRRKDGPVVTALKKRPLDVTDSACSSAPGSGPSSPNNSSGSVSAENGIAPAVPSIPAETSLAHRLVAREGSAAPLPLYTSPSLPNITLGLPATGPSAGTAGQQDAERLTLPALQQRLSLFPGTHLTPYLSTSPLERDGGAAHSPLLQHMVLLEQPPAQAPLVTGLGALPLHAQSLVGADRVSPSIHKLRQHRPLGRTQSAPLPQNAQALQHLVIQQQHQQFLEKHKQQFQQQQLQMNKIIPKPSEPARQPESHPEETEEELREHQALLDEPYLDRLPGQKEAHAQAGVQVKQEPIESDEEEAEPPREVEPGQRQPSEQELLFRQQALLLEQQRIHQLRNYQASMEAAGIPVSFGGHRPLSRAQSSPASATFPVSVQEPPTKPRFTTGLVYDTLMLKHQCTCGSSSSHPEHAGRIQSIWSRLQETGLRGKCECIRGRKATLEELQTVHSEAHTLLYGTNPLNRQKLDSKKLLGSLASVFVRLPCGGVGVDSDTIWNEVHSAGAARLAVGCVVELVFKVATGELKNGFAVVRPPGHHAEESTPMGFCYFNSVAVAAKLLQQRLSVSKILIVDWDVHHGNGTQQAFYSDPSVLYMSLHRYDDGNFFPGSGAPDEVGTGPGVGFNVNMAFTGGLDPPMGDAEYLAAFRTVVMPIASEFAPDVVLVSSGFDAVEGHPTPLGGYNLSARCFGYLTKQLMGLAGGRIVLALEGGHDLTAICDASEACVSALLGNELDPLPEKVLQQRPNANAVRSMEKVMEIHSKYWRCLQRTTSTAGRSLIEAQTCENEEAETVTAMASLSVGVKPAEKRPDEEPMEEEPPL
Histone deacetylase 1 (Homo sapiens), sequence (Q13547 whole entry): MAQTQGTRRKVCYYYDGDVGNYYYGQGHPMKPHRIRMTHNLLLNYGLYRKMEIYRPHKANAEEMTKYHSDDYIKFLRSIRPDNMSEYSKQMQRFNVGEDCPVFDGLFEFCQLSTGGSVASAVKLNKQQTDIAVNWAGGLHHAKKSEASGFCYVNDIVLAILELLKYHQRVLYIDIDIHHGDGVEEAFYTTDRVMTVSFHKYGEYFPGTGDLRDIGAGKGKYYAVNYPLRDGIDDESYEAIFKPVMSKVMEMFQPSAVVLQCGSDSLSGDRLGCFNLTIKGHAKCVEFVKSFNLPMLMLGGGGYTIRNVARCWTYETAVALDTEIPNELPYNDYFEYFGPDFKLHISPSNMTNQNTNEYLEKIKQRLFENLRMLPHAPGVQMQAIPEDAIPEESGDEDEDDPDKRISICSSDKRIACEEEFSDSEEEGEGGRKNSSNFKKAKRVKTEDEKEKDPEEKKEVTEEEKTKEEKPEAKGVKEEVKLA
DNA (cytosine-5)-methyltransferase 1 (Homo sapiens), sequence (P26358 whole entry): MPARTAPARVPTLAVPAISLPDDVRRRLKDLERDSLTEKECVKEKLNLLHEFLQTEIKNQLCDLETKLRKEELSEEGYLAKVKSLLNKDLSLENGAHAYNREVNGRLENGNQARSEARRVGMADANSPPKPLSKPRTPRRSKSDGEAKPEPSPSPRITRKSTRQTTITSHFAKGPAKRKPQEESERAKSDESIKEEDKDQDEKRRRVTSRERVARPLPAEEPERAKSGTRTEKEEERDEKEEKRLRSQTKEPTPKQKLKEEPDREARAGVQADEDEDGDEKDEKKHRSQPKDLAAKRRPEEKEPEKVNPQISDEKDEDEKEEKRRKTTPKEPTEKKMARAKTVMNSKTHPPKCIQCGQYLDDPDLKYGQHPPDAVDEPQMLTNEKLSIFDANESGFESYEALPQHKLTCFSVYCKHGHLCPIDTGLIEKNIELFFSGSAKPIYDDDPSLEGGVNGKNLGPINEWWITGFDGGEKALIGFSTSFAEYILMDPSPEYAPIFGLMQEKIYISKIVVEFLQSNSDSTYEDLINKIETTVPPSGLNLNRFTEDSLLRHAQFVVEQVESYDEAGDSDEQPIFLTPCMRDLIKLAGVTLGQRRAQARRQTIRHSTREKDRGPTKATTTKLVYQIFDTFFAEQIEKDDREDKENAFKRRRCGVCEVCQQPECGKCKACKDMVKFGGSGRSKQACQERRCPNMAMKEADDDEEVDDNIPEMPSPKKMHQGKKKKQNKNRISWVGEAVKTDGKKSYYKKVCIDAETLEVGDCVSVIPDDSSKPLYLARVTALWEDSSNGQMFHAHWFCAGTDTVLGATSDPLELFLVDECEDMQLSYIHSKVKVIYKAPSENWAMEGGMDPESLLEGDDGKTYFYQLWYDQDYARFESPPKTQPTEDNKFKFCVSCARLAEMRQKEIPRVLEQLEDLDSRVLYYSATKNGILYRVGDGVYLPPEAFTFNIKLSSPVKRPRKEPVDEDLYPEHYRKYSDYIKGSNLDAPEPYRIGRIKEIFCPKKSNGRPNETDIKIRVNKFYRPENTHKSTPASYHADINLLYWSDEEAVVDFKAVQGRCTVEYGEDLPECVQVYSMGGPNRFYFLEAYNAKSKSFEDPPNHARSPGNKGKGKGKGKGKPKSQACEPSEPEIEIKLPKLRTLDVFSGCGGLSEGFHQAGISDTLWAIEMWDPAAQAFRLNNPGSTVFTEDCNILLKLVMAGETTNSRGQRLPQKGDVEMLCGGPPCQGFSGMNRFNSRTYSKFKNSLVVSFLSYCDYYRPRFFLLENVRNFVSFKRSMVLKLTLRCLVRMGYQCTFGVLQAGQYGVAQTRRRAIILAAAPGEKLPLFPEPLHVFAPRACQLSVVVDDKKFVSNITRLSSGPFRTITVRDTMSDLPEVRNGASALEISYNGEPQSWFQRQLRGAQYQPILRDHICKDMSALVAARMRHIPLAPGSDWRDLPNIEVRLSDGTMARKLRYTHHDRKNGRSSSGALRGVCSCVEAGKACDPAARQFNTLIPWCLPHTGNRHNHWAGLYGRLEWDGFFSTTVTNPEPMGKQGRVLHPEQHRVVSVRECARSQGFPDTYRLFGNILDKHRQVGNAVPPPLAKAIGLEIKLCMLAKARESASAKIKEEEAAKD

Row | SMILES | inhibition [1] | inhibition [2] | Activity (U-937 [3]) | inhibition [4] | inhibition [5] | inhibition [6] | Activity (U-937 [9]) | inhibition [10] | other results
1 | O=C(NCCSSCCNC(=O)/C(Cc1c[nH]c2ccc(F)cc12)=N/O)/C(Cc1c[nH]c2ccc(F)cc12)=N/O | inactive | inactive | Active | Active | inactive | Active | – | – | –
2 | O=C(NCCSSCCNC(=O)/C(Cc1c[nH]c2cccc(Br)c12)=N/O)/C(Cc1c[nH]c2cccc(Br)c12)=N/O | Active | – | – | – | – | – | – | – | –
3 | O=C(O)[C@H](Cc1c[nH]c2ccccc12)N1C(=O)c2ccccc2C1=O | – | – | – | – | – | – | – | – | inhibition [7]: Active
4 | O=C(NCCSSCCNC(=O)/C(Cc1c[nH]c2ccc(Br)cc12)=N/OCc1ccccc1)/C(Cc1c[nH]c2ccc(Br)cc12)=N/OCc1ccccc1 | Active | – | – | – | – | – | – | – | –
5 | O=C(NCCSSCCNC(=O)/C(Cc1cn(Cc2ccc(Br)cc2)c2ccc(Br)cc12)=N/O)/C(Cc1cn(Cc2ccc(Br)cc2)c2ccc(Br)cc12)=N/O | Active | – | – | – | – | – | inactive | Active | inhibition [8]: Active; inhibition [11]: Active
6 | O=C(NCCCCCSSCCCCCNC(=O)/C(Cc1c[nH]c2ccc(Br)cc12)=N/O)/C(Cc1c[nH]c2ccc(Br)cc12)=N/O | Active | – | – | 40% | – | 20% | – | – | –
7 | O=C(NCCCCCCCCNC(=O)/C(Cc1c[nH]c2ccc(Br)cc12)=N/O)/C(Cc1c[nH]c2ccc(Br)cc12)=N/O | Active | – | – | – | – | – | inactive | Active | inhibition [8]: Active; inhibition [12]: Active; inhibition [7]: inactive; inhibition [11]: Active
8 | O=C(NCCSSCCNC(=O)/C(Cc1c[nH]c2ccccc12)=N/O)/C(Cc1c[nH]c2ccccc12)=N/O | Active | Active | – | 40% | Active | 20% | inactive | Active | inhibition [13]: Active
9 | O=C(NCCCSSCCCNC(=O)/C(Cc1c[nH]c2ccc(Br)cc12)=N/O)/C(Cc1c[nH]c2ccc(Br)cc12)=N/O | Active | – | – | – | – | – | – | – | Activity (U-937 [14]): Active
10 | O=C(NCCSSCCNC(=O)/C(Cc1c[nH]c2ccc(OCc3ccccc3)cc12)=N/O)/C(Cc1c[nH]c2ccc(OCc3ccccc3)cc12)=N/O | Active | Active | Active | Active | Active | Active | inactive | – | inhibition [7]: Active; inhibition [15]: Active; inhibition [16]: Dose-dependent effect; Activity (U-937 [14]): Active
11 | COCCNC(=O)/C(Cc1c[nH]c2ccc(Br)cc12)=N/O | Active | – | – | – | – | – | inactive | inactive | inhibition [8]: inactive; inhibition [11]: inactive
12 | CO/N=C(\Cc1c[nH]c2ccc(Br)cc12)C(=O)NCCSSCCNC(=O)/C(Cc1c[nH]c2ccc(Br)cc12)=N/OC | Active | – | – | Active | – | Active | inactive | – | inhibition [12]: Active; inhibition [7]: Active
13 | O=C(NCCCCSSCCCCNC(=O)/C(Cc1c[nH]c2ccc(Br)cc12)=N/O)/C(Cc1c[nH]c2ccc(Br)cc12)=N/O | Active | inactive | Active | 40% | – | 20% | inactive | inactive | inhibition [13]: inactive; inhibition [8]: Active; inhibition [12]: Active; Activity (U-937 [14]): Active; inhibition [11]: Active
14 | O=C(NCCSSCCNC(=O)/C(Cc1c[nH]c2ccc(Cl)cc12)=N/O)/C(Cc1c[nH]c2ccc(Cl)cc12)=N/O | Active | Active | Active | Active | Active | Active | – | – | –
15 | O=C(NCCO)/C(Cc1c[nH]c2ccc(Br)cc12)=N/O | Active | – | – | – | – | – | inactive | inactive | inhibition [8]: inactive; inhibition [15]: Active; inhibition [16]: Dose-dependent effect; inhibition [11]: inactive
16 | Cn1cc(CCC(=O)NCCSSCCNC(=O)CCc2cn(C)c3ccc(Br)cc23)c2cc(Br)ccc21 | Active | – | – | – | – | – | – | – | –
17 | O=C(CCc1c[nH]c2ccc(Br)cc12)NCCSSCCNC(=O)CCc1c[nH]c2ccc(Br)cc12 | Active | Active | Active | Active | Active | – | inactive | – | inhibition [7]: inactive; inhibition [16]: Dose-dependent effect
18 | COc1ccc2[nH]cc(C/C(=N\O)C(=O)NCCSSCCNC(=O)/C(Cc3c[nH]c4ccc(OC)cc34)=N/O)c2c1 | Active | Active | Active | Active | Active | Active | – | – | Activity (U-937 [14]): Active
19 | O=C(NCCSSCCNC(=O)/C(Cc1c[nH]c2ccc(I)cc12)=N/O)/C(Cc1c[nH]c2ccc(I)cc12)=N/O | Active | Active | Active | Active | Active | Active | – | – | –
